{"source": "patent US6355799B1", "about": "“Substituted benzene compounds, process for their preparation, and herbicidal and defoliant compositions containing them” (ISK Americas Incorporated, priority 1997, dated 2002)", "format_in_all_cases": "in vivo", "key": {"[1]": {"test_system": "upland rice (Oryza sp., var. Tebonnet, RICE)", "assay": "Post-emerge test, crop safety", "conditions": "rating scale 0-100 (0 no damage, 100 complete death), 14 days after application", "summary_of_the_method": "(§1)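 Rating: 0–100 visual injury, 14 DAA. Application: acetone, 187 l/ha, 15–1000 g ai/ha, flat-fan track sprayer with nozzle 40–45 cm above soil or canopy. Post-emerge runs used 0.25% v/v surfactant on 2–3 leaf plants.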"}, "[2]": {"test_system": "field corn (Zea mays L., var. Dekalb 535, CORN)", "assay": "Post-emerge test, crop safety", "conditions": "rating scale 0-100 (0 no damage, 100 complete death), 14 days after application", "summary_of_the_method": "as §1"}, "[3]": {"test_system": "redroot pigweed (Amaranthus retroflexus, AMARE)", "assay": "Pre-emerge test, greenhouse herbicide activity screening", "conditions": "rating scale 0-100, 14 days after application", "summary_of_the_method": "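Sandy loam pots; pre-emerge: sown 1 d pre-spray, surface-watered after, then bottom-watered. Post-emerge: sown 8–21 d before, 2–3 leaf stage, + 0.25% v/v NIS, bottom-watered. Acetone, 187 l/ha track spray, 15–1000 g ai/ha. 0–100 injury score, day 14.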"}, "[4]": {"test_system": "upland rice (Oryza sp., var. Tebonnet, RICE)", "assay": "Pre-emerge test, crop safety", "conditions": "rating scale 0-100, 14 days after application", "summary_of_the_method": "(§2)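 Fourteen days after spraying, crop and weed injury was graded visually from 0, no effect, to 100, every plant dead. Test substances were dissolved in acetone and applied at 15–1000 g ai/ha with a flat-fan nozzle. Application was either pre-emergence, one day after sowing, or post-emergence at the 2–3 leaf stage.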"}, "[5]": {"test_system": "field corn (Zea mays L., var. Dekalb 535, CORN)", "assay": "Pre-emerge test, crop safety", "conditions": "rating scale 0-100, 14 days after application", "summary_of_the_method": "as §2"}, "[6]": {"test_system": "ivyleaf morningglory (Ipomoea hederacea, IPOHE)", "assay": "Pre-emerge test, greenhouse herbicide activity screening", "conditions": "rating scale 0-100, 14 days after application", "summary_of_the_method": "(§3)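 Compounds in acetone were track-sprayed at 15–1000 g ai/ha: pre-emergence onto soil sown the previous day, then top-watered to incorporate and later bottom-watered; post-emergence onto 2–3 leaf plants with 0.25% v/v surfactant, bottom-watered only. Ratings on a 0–100 phytotoxicity scale were taken at day 14.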"}, "[7]": {"test_system": "sicklepod (Cassia obtusifolia, CASOB)", "assay": "Pre-emerge test, greenhouse herbicide activity screening", "conditions": "rating scale 0-100, 14 days after application", "summary_of_the_method": "as §3"}, "[8]": {"test_system": "lambsquarters (Chenopodium album, CHEAL)", "assay": "Pre-emerge test, greenhouse herbicide activity screening", "conditions": "rating scale 0-100, 14 days after application", "summary_of_the_method": "as §3"}, "[9]": {"test_system": "barnyardgrass (Echinochloa crus-galli, ECHCG)", "assay": "Pre-emerge test, greenhouse herbicide activity screening", "conditions": "rating scale 0-100, 14 days after application", "summary_of_the_method": "as §3"}, "[10]": {"test_system": "johnsongrass (Sorghum halepense, SORHA)", "assay": "Pre-emerge test, greenhouse herbicide activity screening", "conditions": "rating scale 0-100, 14 days after application", "summary_of_the_method": "as §3"}, "[11]": {"test_system": "large crabgrass (Digitaria sanguinalis, DIGSA)", "assay": "Pre-emerge test, greenhouse herbicide activity screening", "conditions": "rating scale 0-100, 14 days after application", "summary_of_the_method": "as §3"}, "[12]": {"test_system": "velvetleaf (Abutilon theophrasti, ABUTH)", "assay": "Pre-emerge test, greenhouse herbicide activity screening", "conditions": "rating scale 0-100, 14 days after application", "summary_of_the_method": "as §3"}, "[13]": {"test_system": "green foxtail (Setaria viridis, SETVI)", "assay": "Pre-emerge test, greenhouse herbicide activity screening", "conditions": "rating scale 0-100, 14 days after application", "summary_of_the_method": "as §3"}, "[14]": {"test_system": "ivyleaf morningglory (Ipomoea hederacea, IPOHE)", "assay": "Post-emerge test, greenhouse herbicide activity screening", "conditions": "rating scale 0-100 (0 no damage, 100 complete death), 14 days after application", "summary_of_the_method": "(§4)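 Visual ratings on a 0-100 scale (0 no damage, 100 all plants dead) were taken at 14 days after treatment. Rates of 15-1000 g ai/ha in acetone, 187 l/ha, were sprayed onto soil one day after planting (pre-emerge) or onto 2-3 leaf plants with 0.25% v/v surfactant (post-emerge).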"}, "[15]": {"test_system": "redroot pigweed (Amaranthus retroflexus, AMARE)", "assay": "Post-emerge test, greenhouse herbicide activity screening", "conditions": "rating scale 0-100 (0 no damage, 100 complete death), 14 days after application", "summary_of_the_method": "as §4"}, "[16]": {"test_system": "sicklepod (Cassia obtusifolia, CASOB)", "assay": "Post-emerge test, greenhouse herbicide activity screening", "conditions": "rating scale 0-100 (0 no damage, 100 complete death), 14 days after application", "summary_of_the_method": "as §4"}, "[17]": {"test_system": "lambsquarters (Chenopodium album, CHEAL)", "assay": "Post-emerge test, greenhouse herbicide activity screening", "conditions": "rating scale 0-100 (0 no damage, 100 complete death), 14 days after application", "summary_of_the_method": "as §4"}, "[18]": {"test_system": "barnyardgrass (Echinochloa crus-galli, ECHCG)", "assay": "Post-emerge test, greenhouse herbicide activity screening", "conditions": "rating scale 0-100 (0 no damage, 100 complete death), 14 days after application", "summary_of_the_method": "as §4"}, "[19]": {"test_system": "johnsongrass (Sorghum halepense, SORHA)", "assay": "Post-emerge test, greenhouse herbicide activity screening", "conditions": "rating scale 0-100 (0 no damage, 100 complete death), 14 days after application", "summary_of_the_method": "as §4"}, "[20]": {"test_system": "large crabgrass (Digitaria sanguinalis, DIGSA)", "assay": "Post-emerge test, greenhouse herbicide activity screening", "conditions": "rating scale 0-100 (0 no damage, 100 complete death), 14 days after application", "summary_of_the_method": "as §4"}, "[21]": {"test_system": "velvetleaf (Abutilon theophrasti, ABUTH)", "assay": "Post-emerge test, greenhouse herbicide activity screening", "conditions": "rating scale 0-100 (0 no damage, 100 complete death), 14 days after application", "summary_of_the_method": "as §4"}, "[22]": {"test_system": "green foxtail (Setaria viridis, SETVI)", "assay": "Post-emerge test, greenhouse herbicide activity screening", "conditions": "rating scale 0-100 (0 no damage, 100 complete death), 14 days after application", "summary_of_the_method": "as §4"}}, "data": [{"smiles": "COc1c(Cl)cc(F)c(-n2c(=O)cc(C(F)(F)F)n(C)c2=O)c1CC(Cl)C(=O)OCC(Br)CBr", "note": "(single isomer, unassigned) [14-30]", "values": [{"measurement": "Post-emerge phytotoxicity rating RICE (crop damage)", "setting": "[1]; Rate 63 g ai/ha", "value": 0}, {"measurement": "Post-emerge phytotoxicity rating RICE (crop damage)", "setting": "[1]; Rate 250 g ai/ha", "value": 0}, {"measurement": "Post-emerge phytotoxicity rating CORN (crop damage)", "setting": "[2]; Rate 63 g ai/ha", "value": 10}, {"measurement": "Post-emerge phytotoxicity rating CORN (crop damage)", "setting": "[2]; Rate 250 g ai/ha", "value": 20}, {"measurement": "Pre-emerge herbicidal activity, phytotoxicity rating AMARE", "setting": "[3]; 63 g ai/ha", "value": 70}, {"measurement": "Pre-emerge herbicidal activity, phytotoxicity rating AMARE", "setting": "[3]; 250 g ai/ha", "value": 100}, {"measurement": "Pre-emerge phytotoxicity rating, crop damage RICE", "setting": "[4]; 63 g ai/ha", "value": 0}, {"measurement": "Pre-emerge phytotoxicity rating, crop damage RICE", "setting": "[4]; 250 g ai/ha", "value": 0}, {"measurement": "Pre-emerge phytotoxicity rating, crop damage CORN", "setting": "[5]; 63 g ai/ha", "value": 0}, {"measurement": "Pre-emerge phytotoxicity rating, crop damage CORN", "setting": "[5]; 250 g ai/ha", "value": 0}, {"measurement": "Pre-emerge herbicidal activity, phytotoxicity rating IPOHE", "setting": "[6]; 63 g ai/ha", "value": 0}, {"measurement": "Pre-emerge herbicidal activity, phytotoxicity rating IPOHE", "setting": "[6]; 250 g ai/ha", "value": 0}, {"measurement": "Pre-emerge herbicidal activity, phytotoxicity rating CASOB", "setting": "[7]; 63 g ai/ha", "value": 0}, {"measurement": "Pre-emerge herbicidal activity, phytotoxicity rating CASOB", "setting": "[7]; 250 g ai/ha", "value": 0}, {"measurement": "Pre-emerge herbicidal activity, phytotoxicity rating CHEAL", "setting": "[8]; 63 g ai/ha", "value": 0}, {"measurement": "Pre-emerge herbicidal activity, phytotoxicity rating CHEAL", "setting": "[8]; 250 g ai/ha", "value": 80}, {"measurement": "Pre-emerge herbicidal activity, phytotoxicity rating ECHCG", "setting": "[9]; 63 g ai/ha", "value": 0}, {"measurement": "Pre-emerge herbicidal activity, phytotoxicity rating ECHCG", "setting": "[9]; 250 g ai/ha", "value": 0}, {"measurement": "Pre-emerge herbicidal activity, phytotoxicity rating SORHA", "setting": "[10]; 63 g ai/ha", "value": 0}, {"measurement": "Pre-emerge herbicidal activity, phytotoxicity rating SORHA", "setting": "[10]; 250 g ai/ha", "value": 0}, {"measurement": "Pre-emerge herbicidal activity, phytotoxicity rating DIGSA", "setting": "[11]; 63 g ai/ha", "value": 0}, {"measurement": "Pre-emerge herbicidal activity, phytotoxicity rating DIGSA", "setting": "[11]; 250 g ai/ha", "value": 90}, {"measurement": "Pre-emerge herbicidal activity, phytotoxicity rating ABUTH", "setting": "[12]; 63 g ai/ha", "value": 0}, {"measurement": "Pre-emerge herbicidal activity, phytotoxicity rating ABUTH", "setting": "[12]; 250 g ai/ha", "value": 50}, {"measurement": "Pre-emerge herbicidal activity, phytotoxicity rating SETVI", "setting": "[13]; 63 g ai/ha", "value": 0}, {"measurement": "Pre-emerge herbicidal activity, phytotoxicity rating SETVI", "setting": "[13]; 250 g ai/ha", "value": 0}, {"measurement": "Post-emerge Herbicidal Activity, phytotoxicity rating IPOHE", "setting": "[14]; Rate 63 g ai/ha", "value": 0}, {"measurement": "Post-emerge Herbicidal Activity, phytotoxicity rating IPOHE", "setting": "[14]; Rate 250 g ai/ha", "value": 50}, {"measurement": "Post-emerge Herbicidal Activity, phytotoxicity rating AMARE", "setting": "[15]; Rate 63 g ai/ha", "value": 70}, {"measurement": "Post-emerge Herbicidal Activity, phytotoxicity rating AMARE", "setting": "[15]; Rate 250 g ai/ha", "value": 100}, {"measurement": "Post-emerge Herbicidal Activity, phytotoxicity rating CASOB", "setting": "[16]; Rate 63 g ai/ha", "value": 20}, {"measurement": "Post-emerge Herbicidal Activity, phytotoxicity rating CASOB", "setting": "[16]; Rate 250 g ai/ha", "value": 60}, {"measurement": "Post-emerge Herbicidal Activity, phytotoxicity rating CHEAL", "setting": "[17]; Rate 63 g ai/ha", "value": 50}, {"measurement": "Post-emerge Herbicidal Activity, phytotoxicity rating CHEAL", "setting": "[17]; Rate 250 g ai/ha", "value": 100}, {"measurement": "Post-emerge Herbicidal Activity, phytotoxicity rating ECHCG", "setting": "[18]; Rate 63 g ai/ha", "value": 100}, {"measurement": "Post-emerge Herbicidal Activity, phytotoxicity rating ECHCG", "setting": "[18]; Rate 250 g ai/ha", "value": 100}, {"measurement": "Post-emerge Herbicidal Activity, phytotoxicity rating SORHA", "setting": "[19]; Rate 63 g ai/ha", "value": 0}, {"measurement": "Post-emerge Herbicidal Activity, phytotoxicity rating SORHA", "setting": "[19]; Rate 250 g ai/ha", "value": 50}, {"measurement": "Post-emerge Herbicidal Activity, phytotoxicity rating DIGSA", "setting": "[20]; Rate 63 g ai/ha", "value": 60}, {"measurement": "Post-emerge Herbicidal Activity, phytotoxicity rating DIGSA", "setting": "[20]; Rate 250 g ai/ha", "value": 100}, {"measurement": "Post-emerge Herbicidal Activity, phytotoxicity rating ABUTH", "setting": "[21]; Rate 63 g ai/ha", "value": 60}, {"measurement": "Post-emerge Herbicidal Activity, phytotoxicity rating ABUTH", "setting": "[21]; Rate 250 g ai/ha", "value": 100}, {"measurement": "Post-emerge Herbicidal Activity, phytotoxicity rating SETVI", "setting": "[22]; Rate 63 g ai/ha", "value": 0}, {"measurement": "Post-emerge Herbicidal Activity, phytotoxicity rating SETVI", "setting": "[22]; Rate 250 g ai/ha", "value": 30}]}]}
